Experimental data published in patent US12617745B2, “Curcusone diterpenoids and uses thereof” (Purdue Research Foundation, priority 2020, dated 2026).
pEC50, pIC50: −log10 of the molar value. Where two headings read alike, the source gives them in different places. Peptide text beside a SMILES is read from it. * marks the point of attachment. Cbz = O=C(OCc1ccccc1)*

Legend:
MCF-7 cells = experiment: Cytotoxicity in MCF-7 cells, WST-1 assay; format: cell-based, human; conditions: for EC50 values against MCF-7 cells, in words / pEC50 / pIC50 / cytotoxicity / anticancer activity in MCF-7 cells, comparative statement: 24 h compound treatment, WST-1; for pEC50: read-out: EC50, viability of MCF-7 cells; for pIC50: read-out: IC50 value / antiproliferation activity in MCF-7 cells
Source text: The absorbance at 420 nm and 630 nm was then acquired using a BioTek Synergy H1 microplate reader. Cell viability results were plotted in GraphPad Prism 7.

HeLa cells = experiment: Global proteomics profiling using LC-MS/MS; format: cell-based, human; conditions: 3 μM, 24 h, among 3347 quantified proteins
[1] = test system: HeLa, MCF-7 and MDA-MB-231 cells; experiment: Transwell migration assay; format: cell-based, human; conditions: 1 μM, 24 hours, all cell lines
BRAT1 [2] = biological target: T1, BRAT1 (Homo sapiens, UniProt Q6PJG6); experiment: In situ dose response via competitive pulldown assay with probe 37; format: cell-based
T1 sequence (Q6PJG6 1-821): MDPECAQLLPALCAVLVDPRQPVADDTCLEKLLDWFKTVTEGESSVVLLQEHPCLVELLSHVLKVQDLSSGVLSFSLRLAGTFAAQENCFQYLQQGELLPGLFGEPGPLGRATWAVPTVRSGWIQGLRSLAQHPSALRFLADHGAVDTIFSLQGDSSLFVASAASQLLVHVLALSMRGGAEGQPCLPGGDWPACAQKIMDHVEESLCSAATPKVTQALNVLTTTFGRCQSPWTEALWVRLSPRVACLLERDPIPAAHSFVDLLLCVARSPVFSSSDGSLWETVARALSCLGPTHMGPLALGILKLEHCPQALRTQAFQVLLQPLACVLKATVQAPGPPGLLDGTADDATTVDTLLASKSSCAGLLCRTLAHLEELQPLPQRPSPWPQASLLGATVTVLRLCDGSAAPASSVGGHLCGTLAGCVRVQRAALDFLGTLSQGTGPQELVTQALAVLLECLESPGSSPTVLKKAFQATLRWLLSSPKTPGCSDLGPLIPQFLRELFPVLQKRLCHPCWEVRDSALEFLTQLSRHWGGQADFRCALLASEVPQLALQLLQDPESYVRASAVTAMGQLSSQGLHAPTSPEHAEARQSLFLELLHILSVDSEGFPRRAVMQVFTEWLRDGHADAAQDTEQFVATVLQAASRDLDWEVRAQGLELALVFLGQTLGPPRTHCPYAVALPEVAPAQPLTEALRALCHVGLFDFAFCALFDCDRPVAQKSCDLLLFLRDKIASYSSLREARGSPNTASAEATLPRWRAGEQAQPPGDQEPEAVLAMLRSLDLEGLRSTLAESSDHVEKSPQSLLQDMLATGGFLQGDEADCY
Method: HeLa (2.0e6) cells were seeded in 60 mm dishes. […] The lysates were prepared and quantified as described above. Lysates (2 mg/mL, 140 μL) was treated with 10 μM 37 (50× stock in DMSO) for one hour at r.t. and then subjected to click chemistry with biotin azide as described above for one hour at r.t. Proteins were precipitated, re-solubilized in 0.2% SDS in PBS, enriched with 50 μL streptavidin beads, and washed as described above. Proteins were eluted using 30 μL SDS-PAGE reducing loading buffer (4×), subjected to 10 min heat denaturation (95° C.), separated using a 11% SDS-PAGE gel, and visualized via Western blotting as described above. Images were quantified with ImageJ. EC50 and Kitz-Wilson binding constants were calculated using GraphPad Prism 7.

FLAG-BRAT1 = biological target: T2, FLAG-BRAT1 (Homo sapiens, UniProt Q6PJG6); experiment: Thermal shift assay of FLAG-BRAT1 via Western blotting; format: binding; conditions: HEK-293T lysate, 30 μM, 34° C. to 61° C.
T2 construct: expressed in transfected cells; host or cells: HEK-293T, transient transfection, lysate
T2 sequence (Q6PJG6 1-821): T1 sequence (Q6PJG6 1-821)
Method: HEK-293T (8e6) cells were seeded in a 10 cm dish in DMEM without pen-strep. After incubating overnight, 24 μg of FLAG-BRAT1 pExp plasmid was incubated for 15 min at r.t. with 96 μL of PEI MAX™ 40K (Polysciences 24765-1) in final volume of 2 mL Opti-MEM (Gibco 11058021). The mixture was then carefully added to the cells. After 24 hours, the cells were carefully washed twice with PBS, and the lysate was prepared by sonication in PBS as described above.
The supernatant was carefully isolated. SDS-PAGE reducing loading buffer (4×) was added to the isolated supernatant, and proteins were transferred to a PVDF (0.2 μm) membrane using wet transfer with tris-glycine transfer buffer (20% methanol) for one hour at 350 mA. Membrane was blocked with 5% milk in tris-buffered saline with 0.1% Tween 20 (TBST) for 30-60 minutes at r.t. and then incubated with primary rabbit polyclonal BRAT1 antibody (Novus NB100-2256, 1:2000 in 5% milk in TBST) overnight shaking at 4° C. Membrane was washed three times for five min with TBST and incubated with anti-rabbit Alexa Fluor 647 (Jackson ImmunoResearch Inc., 1:500 in 5% milk in TBST) for one hour at r.t. Membrane was then washed 3× with TBST and visualized with an Azure Biosystems Sapphire Biomolecular Imager. […]

BRAT1 [3] = biological target: T1, BRAT1; experiment: In situ competitive pulldown assay via Western blotting; format: cell-based; design: endogenous in cells; host or cells: HeLa, MCF-7, MDA-MB-231 (live cells or HeLa lysate)
BRAT1 [4] = biological target: T1, BRAT1; experiment: In situ competitive MS-based target identification; format: cell-based; conditions: MCF-7 cells, 30 μM 1d 4 hours, 10 μM 37
Method: MCF-7 (8e6) cells were seeded in 10 cm Petri dishes and incubated overnight. […] Lysate was prepared as described above. Lysate (2 mg/mL, 0.75 mL) was treated with 10 μM 37 (50× stock in DMSO) for one hour at r.t. and then subjected to click chemistry. […] (Click Chemistry Tools, 50 μM, 50× stock in DMSO), tris(2-carboxyethyl)phosphine hydrochloride (TCEP) (1 mM, Sigma-Aldrich C4706-2G, 50× fresh stock in water), tris[(1-benzyl-1H1,2,3-triazol-4-yl)methyl]amine (TBTA) (100 μM, Click Chemistry Tools, 16× stock in DMSO:tBuOH 1:4), and copper(II) sulfate (Sigma-Aldrich, 1 mM, 50× stock in water) were added to the proteome and left to react for one hour at r.t. […] Samples were analyzed by LC-MS/MS (see below) and the MS data was processed with MaxQuant (see below).
Peptides were resuspended in water with 0.1% formic acid (FA) and analyzed using EASY-nLC 1200 nano-UHPLC coupled to Q Exactive HF-X Quadrupole-Orbitrap mass spectrometer (Thermo Scientific). […]
The MS data was analyzed with MaxQuant9 (V1.6.1.0)^7 and searched against the human proteome (Uniprot) and a common list of contaminants (included in MaxQuant). […] The minimum peptide length was set to 6 amino acids and peptide re-quantification, label-free quantification (MaxLFQ) and “match between runs” were enabled. […]

BRAT1 [5] = biological target: T1, BRAT1; experiment: Competitive BRAT1 pulldown with iodoacetamide (binding reversibility); design: endogenous in cells; host or cells: HeLa (HeLa lysate); conditions: HeLa lysate, IAA 30 mM 1 h pre- or posttreatment, 37 10 μM
Method: To evaluate the binding reversibility, we performed a competitive BRAT1 pulldown assay with the irreversible cysteine-reactive probe iodoacetamide (IAA). HeLa lysate was treated with 37 (10 μM) for 1 h with either pre- or posttreatment with IAA (30 mM) for 1 h followed by enrichment and Western blot analysis as described above.

BRAT1 [6] = biological target: T1, BRAT1; experiment: BRAT1 protein level after 1d treatment (global proteomics, Western blot); format: cell-based; design: endogenous in cells; host or cells: HeLa, MCF-7, MDA-MB-231 (live cells or HeLa lysate); conditions: added for the final 4 hours of 1d treatment

## C=C(C)C1CCC(=C)C2C3=C(C[C@H](C)C3=O)C(=O)C(C)=C[C@@H]12 (single isomer, unassigned; (-)) [1b, (−)-Curcusone B]
MCF-7 cells
  EC50 values against MCF-7 cells, in words: micromolar
MCF-7 cells; MCF-7 cells
  cytotoxicity value of synthetic sample versus naturally isolated counterpart: virtually identical

## C=C(C)C1CCC(=C)C2C3=C(CC(C)(O)C3=O)C(=O)C(C)=CC12 (single isomer, unassigned; (-)) [1d, (−)-Curcusone D]
HeLa cells
  number of down-regulated proteins: 42
  number of up-regulated proteins: 36
[1]
  reduction of cell migration: ~4 fold
BRAT1 [2]; in situ treatment of live HeLa cells, read-out: EC50, competition of BRAT1 enrichment by 37
  pEC50: 5.57
BRAT1 [2]; live HeLa cells, 4 h
  concentration at 50% fractional occupancy (f occ. (50)) of BRAT1: 2.7 µM
FLAG-BRAT1
  thermal stability of FLAG-BRAT1: thermal destabilization
BRAT1 [3]; HeLa and MDA-MB-231 cells
  competition of BRAT1 enrichment by 37: competed the enrichment of BRAT1
BRAT1 [3]; MCF-7 cells, 4 hours
  competition of BRAT1 enrichment by 37: competed
MCF-7 cells
  EC50 values against MCF-7 cells, in words: micromolar
MCF-7 cells; Homo sapiens, MCF7
  pEC50: 4.86
BRAT1 [4]
  protein competed from probe 37 enrichment: best competed target was BRAT1

## NC(=O)CI [IAA, iodoacetamide]
BRAT1 [5]
  competition of BRAT1 enrichment by 37: competed BRAT1 enrichment by 37

## CC(C)C[C@@H](C=O)NC(=O)[C@H](CC(C)C)NC(=O)[C@H](CC(C)C)NC(=O)OCc1ccccc1 [MG132] (Cbz-Leu-Leu-Leu-aldehyde)
BRAT1 [6]
  BRAT1 protein levels with proteasome inhibitor: recovered BRAT1 protein levels

## C=C(C)[C@H]1CCC(=C)[C@@H]2[C@@H]1C=C(C)C(=O)[C@]21CC=C(C)C1=O [compound 3, (+)-Spirocurcasone]
MCF-7 cells
  pIC50: 4.20

## (−)-dimericursone A [2a]
MCF-7 cells
  cytotoxicity / anticancer activity in MCF-7 cells, comparative statement: no toxicity
  pEC50: < 4.00

## (−)-pyracurcasone [compound 33]
MCF-7 cells
  cytotoxicity / anticancer activity in MCF-7 cells, comparative statement: slightly better antiproliferation activity
  pIC50: 5.10
